Earlier results on one molecule are cited in patent US5087633A (G. D. Searle & Co., priority 1989, dated 1992).

Molecules are shown by their SMILES.

The conditions of this data set: in vivo; cited from earlier work.

For the molecule `CCCCCNCC(N)=O` [milacemide], the “Increase of whole brain content of glycine” value is given as 30%.
